Assay results taken from patent US4219566A, “Phenylglyoxylic acids and derivatives thereof” (Pfizer Inc., priority 1977, dated 1980).

Experiments:
[1] = system: pyruvate oxidation by diaphragm tissue from fat-fed rats; assay: Pyruvate oxidation (14C-pyruvate into CO2) by diaphragm tissue from fat-fed rats in vitro; type: cell-based; settings: Rattus norvegicus, read-out: % Stimulation of pyruvate oxidation; for activation at 2000 µM: 2.0 mM compound in medium
Protocol: (1) increase the oxidation of glucose and/or pyruvate by isolated rat muscle preparation in vitro;
(1) (a) Diaphragm tissue is obtained from rats fed on a high fat diet similar to `Diet B` described by Zaragoza and Felber (Horm. Metab. Res. 1970, 2, 323). Pyruvate oxidation by such tissue is assessed by measurement of the rate of incorporation of carbon-14 carbon-14-labelled pyruvate into carbon dioxide in vitro, as described by Bringolf (Eur. J. Biochem. 1972, 26, 360). The rate of pyruvate oxidation is depressed by 50-75% compared with that by diaphragm tissue from rats fed on a normal diet. When the compounds of the formula (I) are added to the medium, they are found to stimulate pyruvate oxidation by diaphragm tissue from fat-fed rats in a dose dependent manner.
The degree of stimulation by the compounds of the formula (I) at a concentration of 2.0 mM (unless otherwise stated) is shown in the following Table.

[2] = system: pyruvate dehydrogenase (PDH); assay: Proportion of active pyruvate dehydrogenase (PDHa/PDHt) in hearts of fat-fed rats after dosing in vivo; set-up: species or system rat; settings: heart of fat-fed rats
Protocol: (2) increase the proportion of the active form of the enzyme pyruvate dehydrogenase (PDH) in organs of animals (e.g. rats) in vivo; and
The ability of compounds of formula (I) to increase the proportion of the active form of the pyruvate dehydrogenase enzyme may be measured by the following test.
(2) Rats fed on a high fat diet as in test (1) (a), are treated either with placebo or with the compound of formula (I), by subcutaneous or intravenous injection or by oral administration, and at various times after treatment the rat hearts are removed and homogenized, under conditions which minimize changes in the proportion of the pyruvate dehydrogenase enzyme which is present in the active form, as described by Whitehouse and Randle (Biochem. J. 1973, 134, 651). The total amount of the enzyme present (PDHt) and the amount which is present in the active form (PDHa) are assessed by a method similar to that described by Taylor et al (J. Biol. Chem. 1973, 248, 73). The fat-feeding process is found to depress the ratio PDHa/PDHt from a normal value of about 0.7 to a value in the range from 0.05 to 0.2.

[3] = system: rats in which diabetes has been induced by treatment with streptozotocin; assay: Blood glucose levels in streptozotocin-diabetic rats; type: in vivo; settings: averages for 8 animals
Protocol: (4) decrease blood glucose levels in animals made diabetic by chemical lesion of the pancreas.
The ability of compounds of formula (I) to decrease blood glucose levels may be assessed by measuring their effect on blood glucose levels in rats in which diabetes has been induced by treatment with streptozotocin (85 mg./kg.). Four days after such treatment, a number of rats are given 1 millimole/kg. of the compound by intraperitoneal injection and a similar number are given placebo. The doses are repeated after a further 24 hours and 48 hours. Blood samples are taken from a tail vein immediately before each dosage (which is 2 hours after removal of the animals from food) and 1, 2 and 3 hours after the third dose.

[4] = system: fasted, closed-chest, anesthetized beagle dogs; assay: Myocardial blood flow and metabolism in electrically paced, anesthetized beagle dogs, with or without isoprenaline; type: in vivo; settings: 0.02 to 0.1 millimole/kg. intravenously; in the presence and absence of isoprenaline
Excerpt: (3) reduce oxygen demand and affect the relative utilization of carbohydrate and lipid metabolites by the electrically-paced heart of an anesthetized dog in the presence or absence of an isoprenaline stimulus.
The ability of compounds of formula (I) to reduce oxygen demand and affect the relative utilization of carbohydrate and lipid metabolites in the heart may be assessed by measuring the effect of the compounds on myocardial blood flow and metabolism in fasted, closed-chest, anesthetized beagle dogs, with cardiac catheterization to enable simultaneous sampling of coronary sinus and arterial blood to be carried out. Coronary sinus blood flow is measured by the hydrogen gas clearance technique described by Aukland et al (Circulation Res. 1964, 14, 164). The heart is paced electrically at 155 beats/min. and recordings of hemodynamic parameters (blood pressure, left ventricular pressure and the first derivative of the latter) are made continuously. Control measurements of coronary blood flow are made and samples of blood taken at 40 min. intervals, both in an untreated animal and in the same animal dosed with an infusion of isoprenaline ([…].), which both stimulates cardiac contraction and increases plasma free fatty acid levels. The compound of formula (I) is then administered intravenously and measurements are made and samples taken again, 40 minutes and 90 minutes later. The blood samples from the artery and coronary sinus are analyzed for oxyhemoglobin, pyruvate and free fatty acid (FFA) content, differences between those of the arterial and coronary sinus blood, when multiplied by coronary blood flow, being a measure of oxygen consumption, pyruvate uptake and FFA uptake by the myocardium respectively.

[5] = dose 1.2 mM/kg subcutaneous, 1.5 hours, placebo ratio 0.11-0.24 in the same line

Work on `O=C(O)C(=O)c1ccc(Cl)cc1` [R=Cl, R1=H, R2=OH, p-chlorophenylglyoxylic acid] yielded an activation at 2000 µM [1] of 71%.
In the case of `CC(C)(C)CSc1ccc(C(=O)C(=O)O)cc1` [R=SCH2 . t-butyl, R1=H, R2=OH], the activation at 2000 µM [1] is reported as 67%.
`CSc1ccc(C(=O)C(=O)O)cc1` [R=SCH3, R1=H, R2=OH, p-(methylthio)phenylglyoxylic acid] was tested, and the activation at 2000 µM [1] was 123%, the “PDHa/PDHt ratio at 1.5 hours (Compound)” value ([2]; first of two doses shown only in drawing 5, subcutaneous, placebo 0.20) was 0.47 and the “PDHa/PDHt ratio at 1.5 hours (Compound)” value ([2]; second of two doses shown only in drawing 5, subcutaneous, placebo 0.12) was 0.24.
`COc1ccc(C(=O)C(=O)O)cc1Cl` [R=OCH3, R1=3-Cl, R2=OH, m-chloro-p-methoxyphenylglyoxylic acid] was tested, and the activation at 2000 µM [1] was 52% and the “PDHa/PDHt ratio at 1.5 hours (Compound)” value [2, 5] was 0.35.
For `CCOc1ccc(C(=O)C(=O)O)cc1` [R=OC2H5, R1=H, R2=OH, p-ethoxyphenylglyoxylic acid], the activation at 2000 µM [1] was 91% and the “PDHa/PDHt ratio at 1.5 hours (Compound)” value [2, 5] was 0.56.
For `CCOC(=O)C(=O)c1ccc(OCC)cc1` [R=OC2H5, R1=H, R2=OC2H5, ethyl p-ethoxyphenylglyoxylate], the “PDHa/PDHt ratio at 1.5 hours (Compound)” value [2, 5] was 0.35.
With `Cc1ccc(C(=O)C(=O)O)cc1` [R=CH3, R1=H, R2=OH, p-methylphenylglyoxylic acid] the activation at 2000 µM [1] was 71% and the “PDHa/PDHt ratio at 1.5 hours (Compound)” value [2, 5] was 0.20.
For `COc1ccc(C(=O)C(=O)O)cc1` [R=OCH3, R1=H, R2=OH, p-methoxyphenylglyoxylic acid], the activation at 2000 µM [1] was 127% and the “PDHa/PDHt ratio at 1.5 hours (Compound)” value [2, 5] was 0.49.
For `CCCCSc1ccc(C(=O)C(=O)O)cc1` [R=S . n-butyl, R1=H, R2=OH, p-(n-butylthio)phenylglyoxylic acid], the activation at 2000 µM [1] was 113%.
With `Cc1cc(C(=O)C(=O)O)ccc1O` [R=OH, R1=3-CH3, R2=OH, p-hydroxy-m-methylphenylglyoxylic acid] the activation at 2000 µM [1] was 21% and the “PDHa/PDHt ratio at 1.5 hours (Compound)” value [2, 5] was 0.31.
In the case of `CC(C)Sc1ccc(C(=O)C(=O)O)cc1` [R=S . isopropyl, R1=H, R2=OH, p-(isopropylthio)phenylglyoxylic acid], the activation at 2000 µM [1] is reported as 200%.
`O=C(O)C(=O)c1ccc(O)c(I)c1` [R=OH, R1=3-I, R2=OH, p-hydroxy-m-iodophenylglyoxylic acid] gave an activation at 2000 µM [1] of 55%.
`O=C(O)C(=O)c1ccccc1` [R=H, R1=H, R2=OH, phenylglyoxylic acid] was tested, and the activation at 1000 µM ([1]; at 1mM) was 25% and the “PDHa/PDHt ratio at 1.5 hours (Compound)” value [2, 5] was 0.38.
With `CCSc1ccc(C(=O)C(=O)O)cc1` [R=SC2H5, R1=H, R2=OH, p-(ethylthio)phenylglyoxylic acid] the activation at 2000 µM [1] was 158% and the “PDHa/PDHt ratio at 1.5 hours (Compound)” value [2, 5] was 0.73.
`O=C(O)C(=O)c1ccc(O)cc1` [p-hydroxyphenylglyoxylic acid] gave an activation at 2000 µM [1] of 104%, a blood glucose level ([3]; 3 hours after the third dose, 1 millimole/kg. intraperitoneal, placebo 369±9) of 344±9 mg./100 ml and a blood glucose level ([3]; after 2 days of treatment, immediately before third dose, 1 millimole/kg. intraperitoneal daily, baseline 376±6, placebo 383±10) of 358±9 mg./100 ml. For the same compound, the “PDHa/PDHt ratio at 1.5 hours (Compound)” value [2, 5] was 0.28, the “duration of increased myocardial pyruvate uptake after dosing” value [4] was “at least 90 minutes” and the myocardial blood flow [4] was “increased”. For the same compound, the myocardial oxygen consumption [4] was “decreased” and the myocardial pyruvate uptake [4] was “increases myocardial pyruvate uptake”.
`CCOC(=O)C(=O)c1ccc(O)cc1` [R=OH, R1=H, R2=OC2H5, ethyl p-hydroxyphenylglyoxylate] showed an activation at 2000 µM [1] of 83%.
